Tested on: cortical spreading depression (CSD)
Assay: Optically triggered cortical spreading depression (CSD) threshold in mice with skull-attached microchip
Type: in vivo
Details: Thy1/ChR2 mice under isoflurane anesthesia, compared with the wake state; data not shown
Procedure: Cortical spreading depression (CSD) in freely behaving mice was triggered optically by administering sequential pulses of light with increasing duration until CSD was observed based on OIS. After each light pulse, OIS was monitored for at least 10 minutes for the occurrence of CSD. If CSD occurred, no further stimulus pulses were delivered, whereas if no CSD occurred, then the duration was increased with the subsequent pulse. To trigger CSD under anesthesia, the cage that the animal was housed in was rapidly flushed with 2% isoflurane in a 20/80% O2/N2 gas mixture. After the animal lost consciousness, the isoflurane was reduced to 1.5% to sustain anesthesia. For prolonged experiments a heating pad set at 37° C. was placed under the cage and a small paper blanket was placed over the animal to maintain its core temperature. Breathing pattern and paw color were continuously monitored. Anesthesia was maintained until CBV returned to baseline levels at the end of the CSD. […] After each light pulse, OIS was monitored for a t least 10 minutes for a CSD, If CSD occurred, no further pulses were delivered. If a baseline threshold was well determined, stimulations were started 3-4 steps before that baseline for subsequent CSDs. […] These measurements illustrate that threshold for optically triggering CSD can be quantified based upon the duration of light stimulation required to evoke CSD. […]

FC(F)OC(Cl)C(F)(F)F (stereo not shown) [isoflurane]
threshold for triggering CSD (duration of blue light stimulation required to evoke CSD): significantly lower than in the wake state
